Data: patent US10172915B2, “Methods and compositions for activation of sirtuins with Annexin A1 peptides” (Duke University, priority 2013, dated 2019)
Blank lines part the entries; values can stand above or below the substance they belong to. No end group written: not given here.

Tests used:
SIRT3 [1] = assay: SIRT3 expression in ARVCs after OGD/reoxygenation (Western blot, confocal microscopy); format: cell-based, rat
Method: (§1) After 24 h incubation, ARVCs were pre-treated with known concentrations of ANXA1sp or scrPEP in growth medium for 1 h, and subjected to 2 h oxygen-glucose-deprivation (OGD: DMEM no glucose, 85% N2/10% H2/5% CO2) in a OGD station chamber/Anaerobic System (Farma Scientific), followed by reoxygenation with 10 μM ANXA1sp or scrPEP in growth medium for 3, 6, and 24 h in a 37° C. and 5% CO2 growth chamber, respectively.
(§2) Proteins were separated by electrophoresis on SDS-PAGE and then transferred onto PVDF-Plus membrane (Millipore). After being blocked with 5% milk, the immunoblots were probed with appropriate antibodies to SIRT3 (Cell Signaling or Abcam), MPP (Santa Cruz), MnSOD, P-AMPK, COXIV, GAPDH (Cell Signaling), and caspase-3 (Cell Signaling, MA) overnight at 4° C. followed by incubation with the corresponding secondary antibodies at room temperature for 1 h. The blots were visualized with the SuperSignal West Dura Extended Duration Substrate (Thermo Scientific) by a gel imaging system (Alpha Innotech).
Confocal studies were performed as described previously. MitoTraker Deep Red FM (Invitrogen) was added into culture medium to make the final concentration of 0.4 μM and incubated at 37° C. for 45 min. After being washed, fixed, permeabilized, and blocked, rabbit monoclonal IgG anti-SIRT3 (Abcam) was added at 4° C. for overnight. Cells were subsequently incubated with Alexa-488 conjugated goat anti-rabbit IgG (Molecular Probes) for 1 h at RT. Images were acquired with a confocal microscope (Zeiss Invert 510 Microscope).

[2] = tested on: AMP-activated protein kinase (AMPK); assay: AMPK phosphorylation in ARVCs after OGD/reoxygenation; format: cell-based, rat; conditions: 2 h OGD, 3 h reoxygenation
Method: as §1, §2

cellular levels of ATP = assay: Cellular ATP levels in ARVCs after OGD/reoxygenation; format: cell-based, rat
Method: as §1
(§3) Blood samples were collected from each rat at 24 h after CPB/DHCA. Samples were immediately cooled to 4° C. and centrifuged at 3,000 rpm for 10 minutes at 4° C. Serum was collected and stored at −80° C. until assay. Whole cell lysate from heart tissues was obtained according to manufacturer's instruction (Panomics) and used for measurement of pro-inflammatory cytokines IL-6, TNFα and MPO by an ELISA method (Thermo Scientific). Cellular levels of ATP were measured by ELISA (Abeam).

[3] = tested on: mitochondrial protein lysine-acetylation; assay: Mitochondrial protein lysine acetylation in ARVCs after OGD/reoxygenation; format: cell-based, rat; conditions: ARVCs following OGD/reoxygenation
Method: as §1

[4] = tested on: adult rat ventricular cardiomyocytes with SIRT3 siRNA; assay: siRNA knock-down of SIRT3 in ARVCs with simulated IR, rescue; format: cell-based; conditions: simulated ischemia-reperfusion
Method: ARVC siRNA transfection: after 24 h of incubation with AW Medium (Cellutron Cat #M-8034) without antibiotics, ARVCs were transfected with a specific SIRT3-siRNA or a scrambled RNA (scrRNA) as control, according to manufacturer's protocol (Santa Cruz). Transfection efficiency was estimated by Western blotting of the target protein (A). ARVC, adult rat ventricular cardiomyocytes; OGD, oxygen-glucose deprivation; scrR, scrambled RNA; siR, SIRT3 siRNA; SP, ANXA1sp; V, vehicle control; scrR+V, scramble RNA with vehicle control; scrR+SP, scramble RNA with ANXA1sp; siR+V, SIRT3 siRNA with vehicle control; siR+SP, SIRT3 siRNA with ANXA1sp; cTnI, cardiac troponin I measured in supernatant. Results presented as mean±SD (n=3). GAPDH used as loading control.

[5] = tested on: rats rendered acutely hyperglycemic, cardioplegic arrest; assay: Rat CPB/CA model in acutely hyperglycemic rats; format: in vivo; conditions: blood glucose>300 mg/dl, Dextrose 25%, 5 gm/kg
Method: Because of the known effects of hyperglycemia to blunt cardioprotective mechanisms, the effects of ANXA1sp were further tested in rats rendered acutely hyperglycemic (blood glucose>300 mg/dl) through perioperative administration of Dextrose (25%, 5 gm/kg). […] Physiological parameters during the conduct of CPB/CA were similar between treatment groups.

[6] = tested on: rats, deep hypothermic circulatory arrest; assay: Rat model of deep hypothermic circulatory arrest (DHCA), myocardial injury; format: in vivo; conditions: 60 min DHCA
Method: (§4) Separate groups of animals underwent 60 minutes of DHCA (18° C.) with a similar treatment design, with animals randomly assigned to sham, CPB/DHCA (Vehicle), DHCA+ANXA1sp (ANXA1sp), or DHCA+scrambled peptide (scrPEP). All rats were subjected to 60 minutes DHCA at 18° C. and received either vehicle (1% DMSO saline), ANXA1sp (total 2 mg/kg), or scrPEP (total 2 mg/kg) iv 1 h before CPB and 1 h after reperfusion (FIG. 10C). Sham operated animals were only cannulated/without CPB/DHCA as baseline control. At 3, 6, and 24 h of post-perfusion, heart and serum samples were harvested. Blood samples were collected and stored at −80° C. until analysis. A small portion of heart tissue from each animal was immediately fixed in 10% buffered formalin, embedded in paraffin, and sectioned for immunostaining, confocal colocalization microscopy, and apoptotic TUNEL staining. Myocardial whole-tissue lysates were obtained at the end of each experiment according to the manufacturer's protocol (Affymetrix). The remaining heart tissues were stored at −80° C. FIG. 10 depicts a diagram of the rat surgical model and schematics of the experimental protocols.
The following endpoints were assessed: plasma cTnI and heart-type fatty acid binding protein (HFABP, ELISA, Life Diagnosis); myocardial apoptosis as levels of cleaved caspase-3 (Western blot) and TUNEL assays (Roche); and echocardiographic left ventricular function. Myocardial levels of TNFα, IL-6, and myeloperoxidase (MPO) were analyzed by ELISA. SIRT3 and cytochrome c were measured in isolated mitochondria by Western blot.
Blood samples were collected from each rat at 24 h after CPB/DHCA. […] Cellular levels of ATP were measured by ELISA (Abeam).
TUNEL assay was performed using the In Situ Cell Death Detection Kit (Roche Molecular Biochemicals) according to manufacturer's protocol. […] The reaction was terminated with stop solution and fluorescent apoptotic signal was detected using a fluorescence microscope (Zeiss LSM 510 inverted confocal). Ten fields of each tissue section were randomly chosen and a total of 50 cells per field were counted. […]

SIRT3 [7] = assay: Myocardial SIRT3 in DHCA rats (Western blot, confocal microscopy); format: in vivo, rat; conditions: for Expression (44-kDa) and activation (28-kDa) of myocardial SIRT3: 60 min DHCA at 18° C., 2 mg/kg iv, 3 hours post-perfusion, p<0.05 vs vehicle; for SIRT3 level and mitochondrial localization in rat myocardium (confocal): 60 min DHCA, 3 h reperfusion
Method: as §2, §4
Confocal studies were performed as described previously. Paraffin sections were deparaffinized using xylene and descending grades of ethanol, pretreated with microwave irradiation (350 W, for 5 min in 200 ml of 0.1M Citrate buffer, pH 6.0). Tissue sections were incubated with rabbit monoclonal IgG anti-SIRT3 (Cell Signaling) and mouse monoclonal IgG anti-COXIV (Cell Signaling) at 4° C. overnight. After washing, tissue sections were incubated with Alexa555 conjugated donkey anti-mouse IgG and Alexa488 conjugated goat anti-rabbit IgG (Molecular Probes) for 1 h at RT. Images were acquired with a confocal microscope (Zeiss Invert 510 Microscope). The control experiments were performed using mouse IgG and/or rabbit IgG.

[8] = tested on: protein lysine acetylation; assay: Protein lysine acetylation in left ventricular myocardial lysates of DHCA rats; format: in vivo, rat; conditions: 60 min DHCA, 6 h reperfusion
Method: (§5) FIG. 15. Increased SIRT3 activity with ANXA1sp treatment is associated with reduced protein lysine acetylation in left ventricular myocardial lysates from rats following 60 min DHCA and 6 h reperfusion (panel A). This included deacetylation of MnSOD (known to increase its reactive oxygen species scavenging activity). Acetylated proteins were immunoprecipitated with anti-acetyl lysine antibody, and deacetylated MnSOD levels were assessed in the supernatant via Western blot (panel B). […] Results presented as mean±SD (n=5/group), *P<0.05. anti-Ac-K, acetylated lysine antibody; IP, immuno-precipitation; WB, Western blot; ROS, reactive oxygen species; MnSOD, manganese superoxide dismutase.
(§6) Separate groups of animals underwent 60 minutes of DHCA (18° C.) with a similar treatment design, with animals randomly assigned to sham, CPB/DHCA (Vehicle), DHCA+ANXA1sp (ANXA1sp), or DHCA+scrambled peptide (scrPEP). All rats were subjected to 60 minutes DHCA at 18° C. and received either vehicle (1% DMSO saline), ANXA1sp (total 2 mg/kg), or scrPEP (total 2 mg/kg) iv 1 h before CPB and 1 h after reperfusion (FIG. 10C). Sham operated animals were only cannulated/without CPB/DHCA as baseline control. At 3, 6, and 24 h of post-perfusion, heart and serum samples were harvested. Blood samples were collected and stored at −80° C. until analysis. […]

reactive oxygen species = assay: Reactive oxygen species in hearts of DHCA rats (ELISA); format: in vivo, rat; conditions: 60 min DHCA, 6 h reperfusion
Method: as §5, §6

[9] = tested on: AMP-activated protein kinase (AMPK); assay: AMPK phosphorylation in myocardium of DHCA rats; format: in vivo, rat; conditions: 60 min DHCA, 3 h reperfusion
Method: (§7) FIG. 16. […] Results presented as mean±SD (n=5), *P<0.05 and ^#P<0.01. P-AMPK, phosphorylated AMPK. GAPDH used as loading control.
as §4

myocardial levels of ATP = assay: Myocardial ATP levels in DHCA rats; format: in vivo, rat; conditions: 60 min DHCA, 3 h reperfusion
Method: as §7, §3

NF-κB p65 subunit = assay: NF-κB p65 acetylation and NF-κB activity in DHCA rats; format: in vivo, rat
Method: FIG. 18. Increased SIRT1 expression with ANXA1sp treatment is also associated with reduced acetylation of NF-κB p65 subunit (at lysine 310 residue) following DHCA in rats. Rats underwent 1 hour DHCA at 18° C. and received either vehicle or ANXA1sp (2 mg/kg, iv) followed by 6 hours reperfusion. Levels of acetylated NF-κB p65 were determined in left ventricular myocardium tissue lysates by Western blot. Results presented as mean±SD (n=4), *p<0.001. DHCA, deep hypothermic circulatory arrest; P65-Ac(K310), lysine 310 acetylated NF-κB p65 subunit. GAPDH used as loading control.
as §4

[10] = tested on: rat coronary ligation models; conditions: cited from earlier work
[11] = tested on: ventricular contractile function ex vivo; conditions: cited from earlier work

- Phosphorylation of AMPK [2]: increased phosphorylation of AMPK
Substance: Ac-Gln-Ala-Trp [ANXA1sp]
- SIRT3 full-length and short form proteins in cell lysates (SIRT3 [1]; ARVCs after OGD/reoxygenation, Western blot): significantly increased SIRT3 in both full-length and short form proteins
- SIRT3 expression in isolated mitochondria (SIRT3 [1]; ARVCs subjected to OGD): increased SIRT3 expression in isolated mitochondria
- SIRT3 in mitochondria by confocal microscopy (SIRT3 [1]; cultured ARVCs, 10 μM, 2 h OGD, 3 h reoxygenation): significantly increased in mitochondria
- ATP concentrations (cellular levels of ATP): increased ATP concentrations
- Protein acetylation [3]: significant reduction in protein acetylation
- Rescue of increased cell necrosis and apoptosis after SIRT3 knock down [4]: partially rescued
- Hyperglycemic exacerbation of myocardial injury and inflammation [5]: significantly attenuated
- Cleaved caspase-3 activity by Western blot [6]: significantly decreased
- Myocardial apoptosis by TUNEL staining ([6]; 24 h post-reperfusion): significantly decreased myocardial apoptosis
- Serum cTnI (ELISA) ([6]; multiple reperfusion time points): significantly decreased
- Expression (44-kDa) and activation (28-kDa) of myocardial SIRT3 (SIRT3 [7]): significantly restored expression and activation of SIRT3
- SIRT3 level and mitochondrial localization in rat myocardium (confocal) (SIRT3 [7]): robustly increased SIRT3 and was predominantly localized in the mitochondria
- Protein acetylation in myocardial tissue homogenates [8]: significant reduction of protein acetylation
- Cellular levels of reactive oxygen species in hearts (reactive oxygen species): decreased cellular levels of reactive oxygen species
- Phosphorylation of AMPK (P-AMPK) in left ventricular myocardial lysates [9]: increased phosphorylation of AMP-activated protein kinase
- Myocardial levels of ATP (myocardial levels of ATP): increased myocardial levels of ATP
- Acetylation of NF-κB p65 (K310) (NF-κB p65 subunit; 1 hour DHCA, 2 mg/kg iv, 6 hours reperfusion): attenuated acetylation of NF-kB p65
- NF-κB transcriptional activity (NF-κB p65 subunit; DHCA rats): suppressed NF-κB transcriptional activity
- NF-κB-mediated gene expression of TNFα (NF-κB p65 subunit; DHCA rats): significantly down-regulated

Substance: Ac-W^10Q^11A^12 [scrPEP, reference compound]
- Expression (44-kDa) and activation (28-kDa) of myocardial SIRT3 (SIRT3 [7]): had no such effects
- SIRT3 level and mitochondrial localization in rat myocardium (confocal) (SIRT3 [7]): has no such effects

Substance: Ac-Ala-Met-Val-Ser-Glu-Phe-Leu-Lys-Gln-Ala-Trp-Phe-Ile-Glu-Asn-Glu-Glu-Gln-Glu-Tyr-Val-Gln-Tyr-Val-Lys (Ac-AMVSEFLKQAWFIENEEQEYVQYVK) [Ac2-26, 25mer peptide derived from annexin 1, commercially available]
- Neutrophil dependent myocardial necrosis [10]: inhibits neutrophil dependent myocardial necrosis
- Post-ischemic recovery of ventricular contractile function [11]: improves post-ischemic recovery of ventricular contractile function
